Test results taken from patent US12256737B2, “Preparation method and application of water-soluble chlorhexidine hyaluronate antibacterial agents” (Jiangnan University, priority 2022, dated 2025).
In brackets after ≈: the same amount, converted by molar mass.

Assays:
Water solubility test = type: physicochemical; settings: deionized water, 25° C., 500 mg sample in 1 ml
Method: A method for testing the water solubility of the chlorhexidine antimicrobial disinfectant included the following steps: • 1 ml of deionized water was added to 500 mg of a sample to be tested and the sample was fully dissolved at 25° C. If an insoluble component existed, an insoluble portion suspended in the solution. After the solution was centrifuged in a centrifuge (rate of 5,000 r/min) for 5 min, the residual solid was washed 3 times in acetone and then dried in a vacuum oven for 24 h, and after the solid was completely dried, the solid was weighed and recorded as W1.
The solubility was calculated as follows: • solubility (mg/ml)=(500−W1)/1 • where W1 is the mass (mg) of the undissolved solid.

E. coli = assay: In-vitro antimicrobial experiment (MIC, 96-well broth dilution); type: cell-based, Escherichia coli; settings: 37° C., 24 h; for MIC: LB liquid medium
Method: (§1) An in-vitro antimicrobial experiment of the chlorhexidine antimicrobial disinfectant was performed according to the following steps: • in a sterile super clean bench, the chlorhexidine antimicrobial disinfectants were separately prepared into 10 mg/ml solutions. A 96-well plate was taken and 100 μL of an LB liquid medium was injected into each well plate. Two rows in the same 96-well plate were respectively used as a sterile control and a drug-free control, 100 μL of the prepared chlorhexidine antimicrobial disinfectant solution was injected into the first column of the rest rows, two rows of each chlorhexidine antimicrobial disinfectant solution were injected as two groups of a parallel test, 100 μL of the uniformly mixed solution was injected into the right side well, the step was repeated until 12 columns of the wells were filled, and 100 μL of the solution was extracted from the last column and discarded. The previously cultured E. coli and S. aureus were diluted to a desired concentration of 1×10^6 CFU/mL using the LB liquid medium. 100 μL of the above-mentioned bacterial solution was injected into each well of the rows injected with the chlorhexidine antimicrobial disinfectant and the drug-free control row in the same plate. Then the plate was placed into a biochemical incubator to be cultured at 37° C. for 24 h. The plate was taken out and the change of the turbidity degree of each well was observed. […] It was observed by naked eyes that the lowest concentration of the antimicrobial agent in the clear wells where no bacteria grew was the minimum inhibitory concentration (MIC) of the tested bacteria.

S. aureus = assay: as above; type: cell-based, Staphylococcus aureus; settings: 37° C., 24 h; for MIC: LB liquid medium
Method: as §1

Photostability test = type: physicochemical; settings: fluorescent lamp
Method: A photostability test of the hyaluronic acid chlorhexidine, for example the hyaluronic acid chlorhexidine (HA8-CHD) prepared in example 2, was performed according to the following steps: • a sample to be detected was exposed in an illumination box provided with a fluorescent lamp for 5 days and taken on 1st day, 3rd day and 5th day. Items (appearance, mass, 1H NMR spectrum detection, and antimicrobial performance) were mainly detected according to stability, especially the appearance change of the sample was particularly required to be noticed.

L-929 mouse fibroblasts = type: cell-based
Method: A cytotoxicity test of the hyaluronic acid chlorhexidine, for example the hyaluronic acid chlorhexidine (HAL-CHD) of example 4, specifically included the following steps: • L-929 mouse fibroblasts were digested and the cell suspension concentration was adjusted to 0.5-1 million/mL. 100 μL of the cell suspension was added into each well of a 96-well plate with […]. The wells at the edge of the 96-well plate were filled with a culture solution. The cells were cultured overnight in a 5% CO2 incubator at 37° C. Three samples of HAL-CHD-1 (1 MIC), HAL-CHD-3 (3 MIC) and HAL-CHD-5 (5 MIC) at the concentration gradients of 10 μL or less were respectively added, and 5 replicates were prepared for each concentration gradient. At the same time, a zero-setting well (containing a culture medium and CCK-8) was set. The 96-well plate was incubated in a 5% CO2 incubator at 37° C. After 24 h, 48 h and 72 h, 10 μL of a CCK-8 reagent was added. The reaction was performed in the incubator for 3 h and the absorbance was measured using a microplate reader at the wavelength of 450 nm.

**Q.** With `CC(=O)O.CC(=O)O.NC(=N\CCCCCC/N=C(N)/N=C(\N)Nc1ccc(Cl)cc1)/N=C(\N)Nc1ccc(Cl)cc1` [AA-CHD, chlorhexidine acetate] as the compound, how does the Water solubility (Water solubility test) read?
**A.** Its Water solubility is 19.05 mg/mL.

**Q.** With `[H]/N=C(\N/C(=N/[H])NCCCCCCNC(=N)NC(=N)Nc1ccc(Cl)cc1)Nc1ccc(Cl)cc1` [CHD, 1,6-bis(p-chlorophenyldiguanido)hexane] as the compound, how does the solubility (Water solubility test; thermodynamic from solid) read?
**A.** The solubility was 850 µg/mL (≈ 1680 µM).

**Q.** With `N=C(NCCCCCCNC(=N)NC(=N)Nc1ccc(Cl)cc1)NC(=N)Nc1ccc(Cl)cc1.O=C(O)[C@H](O)[C@@H](O)[C@H](O)[C@H](O)CO.O=C(O)[C@H](O)[C@@H](O)[C@H](O)[C@H](O)CO` [GA-CHD, chlorhexidine gluconate, reference compound] as the compound, how does the Water solubility (Water solubility test) read?
**A.** Its Water solubility is no less than 500 mg/mL.

**Q.** What about the MIC (E. coli) of the same compound?
**A.** Its MIC is 0.9 µmol/mL.

**Q.** What about the MIC (S. aureus) of the same compound?
**A.** Its MIC is 0.7 µmol/mL.

**Q.** Which “MIC, corresponding mass concentration” value (E. coli) does the source give for hyaluronic acid chlorhexidine [HA4-CHD] here?
**A.** The value was 1,667 μg/mL.

**Q.** What about the MIC (E. coli) of the same compound?
**A.** The MIC was 1.1 µmol/mL.

**Q.** And the “MIC, corresponding mass concentration” value (S. aureus)?
**A.** The value was 1,250 μg/mL.

**Q.** And the MIC (S. aureus)?
**A.** Its MIC is 0.8 µmol/mL.

**Q.** For hyaluronic acid chlorhexidine [HA8-CHD], which “antimicrobial performance after illumination” value (Photostability test; after illumination) is on record?
**A.** Its value is “not obviously reduced”.

**Q.** What about the “appearance versus freshly prepared sample” value (Photostability test; within 5 days of illumination) of the same compound?
**A.** Its value is “no significant difference in appearance”.

**Q.** And the “mass versus freshly prepared sample” value (Photostability test; within 5 days of illumination)?
**A.** Its value is “no significant change in the mass”.

**Q.** And the “structure characterization (1H NMR) versus freshly prepared sample” value (Photostability test; within 5 days of illumination)?
**A.** The value was “no significant difference in the structure characterization”.

**Q.** What about the Water solubility (Water solubility test) of the same compound?
**A.** The Water solubility was no less than 500 mg/mL.

**Q.** Which “cell viability versus control group” value (L-929 mouse fibroblasts) does the source give for hyaluronic acid chlorhexidine [HAL-CHD] here?
**A.** The value was “higher that of the control group”.
